Assay [1] deals with T1, constitutive CNOX (Homo sapiens, UniProt Q8TC92).
T1 sequence (Q8TC92 1-643): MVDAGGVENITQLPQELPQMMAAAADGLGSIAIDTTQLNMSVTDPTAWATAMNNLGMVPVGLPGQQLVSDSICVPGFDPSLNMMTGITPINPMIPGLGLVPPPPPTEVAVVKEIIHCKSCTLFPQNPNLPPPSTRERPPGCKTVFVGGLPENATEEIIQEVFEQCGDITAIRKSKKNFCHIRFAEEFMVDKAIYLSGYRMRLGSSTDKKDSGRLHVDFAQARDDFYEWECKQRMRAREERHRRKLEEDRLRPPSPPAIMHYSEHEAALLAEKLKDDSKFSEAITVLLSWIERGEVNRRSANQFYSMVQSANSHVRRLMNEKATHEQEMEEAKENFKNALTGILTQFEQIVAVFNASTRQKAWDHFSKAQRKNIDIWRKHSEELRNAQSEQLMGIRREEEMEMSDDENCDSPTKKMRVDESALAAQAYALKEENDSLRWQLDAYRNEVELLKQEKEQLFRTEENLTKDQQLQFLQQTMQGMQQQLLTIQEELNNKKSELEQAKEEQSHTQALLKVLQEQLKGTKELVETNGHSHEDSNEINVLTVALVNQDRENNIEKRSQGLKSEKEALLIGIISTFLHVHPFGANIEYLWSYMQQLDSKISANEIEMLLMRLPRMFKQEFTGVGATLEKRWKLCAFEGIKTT
Briefly: NOX (NADH oxidase) assay of solubilized ECTO-NOX activities released from the surface of HeLa cells: CNOX. The assay is classed as biochemical. Also on record: solubilized ECTO-NOX activities released from the surface of HeLa cells by treatment at pH 5; endogenous in cells; host or cells: HeLa S cells, cell-free pH 5 extract. The protocol:
(§1) FIG. 2 is similar to FIG. 1 except that a preparation of solubilized ECTO-NOX activities released from the surface of HeLa cells by treatment at pH 5 (del Castillo-Olivares et al., Arch. Biochem. Biophys. 358: 125-140, 1998) was used as the enzyme source. The AgO was dissolved in DMSO added at a final concentration of AgO of 1 mM. The final concentration of DMSO added in both A and B after 45 minutes was 0.1%. The assays were then continued for and additional 45 minutes. The HeLa extracts contain both the constitutive CNOX (single arrows denoting a 24 minutes period length) and two activity maxima separated by 6 minutes and labeled (1) and (2) which are tNOX (double arrows). With addition of AgO, both tNOX activities are inhibited while the constitutive CNOX remain unaffected. Values are based on three experiments and report means±standard deviations to establish statistical reliability of the data.
FIG. 3 represents the response of total NOX (NADH oxidase) activity of the preparation of FIG. 2 as a function of the logarithm of AgO concentration. […]
(§2) Spectrophotometric assay of NADH Oxidase. NAD(P)H oxidase activities were measured using paired Hitachi U3210 spectrophotometers over successive 5-minutes intervals (two to four or more at low inhibitory concentrations) at 37° C. The activity was determined as the disappearance of NAD(P)H measured at 340 nm. […]

Assay [2] has as its target T1, constitutive CNOX. The experiment in a line: NOX assay with human mammary epithelial (non-cancer) MCF-10A cells: CNOX. The assay is classed as cell-based. Details: solubilized ECTO-NOX activities released from the surface of HeLa cells by treatment at pH 5; endogenous in cells; host or cells: HeLa S cells, cell-free pH 5 extract. The conditions noted are these: 100 μM AgO added in 1.7% phosphoric acid; 10^6 MCF-10A cells. The protocol: (§3) FIG. 6 is as for FIG. 5 except that the assay was with 10^6 human mammary epithelial (non-cancer) MCF-10A cells. These cells lacked tNOX as their surface and contained predominantly a constitutive CNOX (single arrows) which was not inhibited by the 100 μM AgO added in 1.7% phosphoric acid. The MCF-10A cells were late passage cells and contained, as well, an age-related NOX (arNOX) with a period length of 26 minutes. This activity was inhibited by the AgO as shown in Panel B.
(§4) Growth of cells. Cells were grown in culture in a humidified atmosphere of 5% CO2 in air at 37° C. Media were renewed every 2 to 3 days. HeLa (ATCC CCL2) cells were grown in 175-cm^2 flasks in Minimal Essential Medium (Gibco), pH 7.4 at 37° with 10% fetal bovine serum (heat-inactivated), plus 50 mg/L gentamycin sulfate (Sigma). Cells were harvested by scraping and taken up in 140 mM NaCl, 5 mM KCl, 0.7 mM Na2HPO4 and 25 mM Tris, pH 7.4, to a final cell concentration of 0.1 g wet weight (gww) per mL. […]
as §2

Assay [3] relates to constitutive CNOX. The experiment in a line: NOX assay with solubilized soybean plasma membranes. The assay is classed as biochemical, soybean (Glycine max). The conditions noted are these: plasma membranes solubilized in 0.1% Triton X-100 overnight. Here is the method:
FIG. 7 is similar to FIG. 6 except that plasma membranes isolated from etiolated hypocotyls (stems) of soybean (Glycine max) were the enzyme source. The plasma membranes were solubilized in 0.1% Triton X-100 overnight prior to assay. The soybean plasma membranes contain only a constitutive CNOX which is unresponsive to AgO.
(§5) Spectrophotometric assay of NADH Oxidase. NAD(P)H oxidase activities were measured using paired Hitachi U3210 spectrophotometers over successive 5-minutes intervals (two to four or more at low inhibitory concentrations) at 37° C. The activity was determined as the disappearance of NAD(P)H measured at 340 nm. The reaction mixture included sample, 50 mM Tris-MES, pH 7.0, 2 mM KCN, and 150 μM NAD(P)H in a total volume of 2.5 ml at 37° C. with stirring. A millimolar extinction coefficient of 6.22 was used to determine NAD(P)H disappearance.

In assay [4] the target is T1, constitutive CNOX. The experiment in a line: NOX assay with human mammary adenocarcinoma (BT-20) cells: CNOX. The assay is classed as cell-based. Details: endogenous in cells. The conditions noted are these: 100 μM AgO; 2×10^6 BT-20 cells. Here is the method:
(§6) FIG. 5 presents results from an assay using 2×10^6 human mammary adenocarcinoma (BT-20) cells carried out as described for FIG. 2. Panel A (no addition) received only the phosphoric acid (0.0017%).
as §4, with “mL. MCF-10A human mammary epithelial cells were cultured in a 1:1 mixture of Ham's F12 medium and Dulbecco's Modified Eagle's medium containing glutamine […], hydrocortisone (0.5 μg/mL), EGF (20 ng/mL), and 5% horse serum. Medium was renewed every 2-3 days.” for “mL.”
as §2

The next assay relates to age-related NOX (arNOX). Briefly: NOX assay with human mammary epithelial (non-cancer) MCF-10A cells: arNOX. The assay is classed as cell-based. The conditions noted are these: 100 μM AgO added in 1.7% phosphoric acid; late passage MCF-10A cells. Here is the method: as §3, §4, §2
For assay [5], the target named is T2, tNOX (Homo sapiens, UniProt Q16206).
T2 sequence (Q16206 1-610): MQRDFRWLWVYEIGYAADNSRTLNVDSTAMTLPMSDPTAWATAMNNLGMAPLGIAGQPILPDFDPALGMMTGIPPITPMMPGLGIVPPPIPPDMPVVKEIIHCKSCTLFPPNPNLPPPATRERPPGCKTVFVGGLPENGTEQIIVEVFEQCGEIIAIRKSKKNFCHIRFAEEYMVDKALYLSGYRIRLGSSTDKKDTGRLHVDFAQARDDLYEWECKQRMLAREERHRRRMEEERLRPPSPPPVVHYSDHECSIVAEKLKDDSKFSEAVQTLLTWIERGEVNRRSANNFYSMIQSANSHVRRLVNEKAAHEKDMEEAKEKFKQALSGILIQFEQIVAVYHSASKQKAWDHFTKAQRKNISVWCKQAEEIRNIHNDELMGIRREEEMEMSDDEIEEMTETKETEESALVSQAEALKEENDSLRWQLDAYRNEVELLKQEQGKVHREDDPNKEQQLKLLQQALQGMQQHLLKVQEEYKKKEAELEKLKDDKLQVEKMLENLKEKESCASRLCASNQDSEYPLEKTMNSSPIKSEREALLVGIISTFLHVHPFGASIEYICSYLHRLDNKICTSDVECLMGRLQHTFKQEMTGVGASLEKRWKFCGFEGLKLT
The experiment in a line: NOX (NADH oxidase) assay of solubilized ECTO-NOX activities released from the surface of HeLa cells: tNOX. In kind it is biochemical. Details: solubilized ECTO-NOX activities released from the surface of HeLa cells by treatment at pH 5; endogenous in cells; host or cells: HeLa S cells, cell-free pH 5 extract. The protocol:
as §1
FIG. 3 represents the response of total NOX (NADH oxidase) activity of the preparation of FIG. 2 as a function of the logarithm of AgO concentration. The AgO was dissolved in 1.7% phosphoric acid and the dilutions were prepared in water. […] The EC50 of tNOX inhibition was estimated to be about 5 μM.
as §5
Preparation of HeLa Cells and Cell-Free Extracts. HeLa S cells were collected by centrifugation and shipped frozen in 0.1 M sodium acetate, pH 5, in a ratio of 1 mL of packed cell volume to 1 mL of acetate (Cellex Biosciences). The cells were thawed at room temperature, resuspended, and incutated at 37° for 1 hr to release the protein. […]

The target in assay [6] is T3, recombinant form of tNOX (nus tNOX) (Homo sapiens, UniProt Q16206).
T3 construct: nus tag
T3 sequence (Q16206 1-610): T2 sequence (Q16206 1-610)
Briefly: standard NOX assay (oxidation of NADH, decrease in A340) with recombinant tNOX. The assay is classed as biochemical. The conditions noted are these: 100 μM AgO in 1.7% phosphoric acid added after 45 minutes; 25° C. Here is the method: In panel A, an equivalent amount of phosphoric acid was added. The assay measured oxidation of NADH (decrease in A340) in a standard NOX assay at 25° C.
as §5

Assay [7] deals with T2, tNOX. The experiment in a line: NOX assay with human mammary adenocarcinoma (BT-20) cells: tNOX. The conditions noted are these: 100 μM AgO; 2×10^6 BT-20 cells. Details: endogenous in cells. In kind it is cell-based. The protocol: as §6
as §4, with “mL. MCF-10A human mammary epithelial cells were cultured in a 1:1 mixture of Ham's F12 medium and Dulbecco's Modified Eagle's medium containing glutamine […], hydrocortisone (0.5 μg/mL), EGF (20 ng/mL), and 5% horse serum. Medium was renewed every 2-3 days.” for “mL.”
as §2

For assay [8], the system named is aging-related isoform (arNOX). Conditions: previous findings described in the background; cited from earlier work.
The mark [9] stands for this setting: AgO dissolved in DMSO, final concentration 1 mM, added after 45 minutes.

Regarding `[O]=[Ag]` [AgO, silver (II) oxide], the “inhibition of constitutive CNOX” value on constitutive CNOX [1] (AgO concentration series in 1.7% phosphoric acid/water) and on constitutive CNOX [2] was “not inhibited” each time. The “effect on constitutive CNOX activity” value on constitutive CNOX [1] (setting [9]) is reported as “unaffected”. Also, in the assay with constitutive CNOX [3], the “response of constitutive CNOX to AgO” value is “unresponsive”. At constitutive CNOX [4], the “effect on constitutive CNOX” value is listed as “without effect”. Further, the “inhibition of age-related NOX (arNOX) activity” value in the assay with age-related NOX (arNOX) is listed as “inhibited”. On tNOX [5] (AgO concentration of 100 μM (10^−4M)), the “inhibition of tNOX” value was “completely inhibited”. Besides, the EC50 (usually the midpoint of the concentration-response curve) on tNOX [5] (AgO dissolved in 1.7% phosphoric acid, dilutions in water, estimated from total NOX activity, read-out: EC50 of tNOX inhibition) is roughly 5 µM. Further, on tNOX [5] (setting [9]), the “inhibition of tNOX activities” value was “inhibited”. In addition, in assay [6], the “inhibition of recombinant tNOX NADH oxidase activity” value is listed as “inhibited completely”. Also, the “inhibition of the two activity maxima associated with tNOX” value against tNOX [7] is recorded as “inhibited”.

Consider `COC1=C(OC)C(=O)C(C/C=C(\C)CC/C=C(\C)CC/C=C(\C)CC/C=C(\C)CC/C=C(\C)CC/C=C(\C)CC/C=C(\C)CC/C=C(\C)CC/C=C(\C)CCC=C(C)C)=C(C)C1=O` [coenzyme Q], for which the “effect on generation of superoxide by arNOX” value in assay [8] was “inhibition”.
